# Marks after values point to notes of the source that are not given here.
# Settings: pH 2.7
row,Structure (SMILES),LogP
1,CC(Oc1ccccc1)C(=O)Nc1nc(CON=C(c2ccccc2Cl)c2noc(=O)n2C)cs1 (stereo not drawn) [Example 493],3.81 [a]
2,C#CCCOC(=O)Nc1nc(CON=C(c2ccccc2Cl)c2noc(=O)n2C)cs1 [Example 499],3.19 [a]
3,Cn1c(C(=NOCc2cccc(N)n2)c2cccc(F)c2F)noc1=O [Example 508],1.34 [a]
4,Cn1c(C(=NOCc2cccc(N)n2)c2ccccc2F)noc1=O [Example 510],1.23 [a]
5,CCCCSC(=S)Nc1nc(CON=C(c2ccccc2)c2noc(=O)n2C)cs1 [Example 512],4.81 [a]
6,CCCCCC(=O)Nc1cccc(CO/N=C(/c2ccccc2F)c2noc(=O)n2C)n1 [Example 513],3.81 [a]
7,CCCCOC(=O)Nc1nc(CO/N=C(/c2ccccc2Cl)c2noc(=O)n2C)cs1 [Example 519],3.85 [a]
8,C#CCCOC(=O)Nc1cccc(CO/N=C(/c2ccccc2F)c2noc(=O)n2C)n1 [Example 525],3.21 [a]
9,CCCCCOC(=O)Nc1nc(CO/N=C(/c2ccccc2Cl)c2noc(=O)n2C)cs1 [Example 530],4.25 [a]
10,CCCCCC(=O)Nc1nc(CO/N=C(/c2ccccc2Cl)c2noc(=O)n2C)cs1 [Example 538],3.89 [a]
11,Cn1c(/C(=N\OCc2csc(NC(=O)SC(C)(C)C)n2)c2ccccc2)noc1=O [Example 539],4.04 [a]
12,Cn1c(/C(=N\OCc2csc(NC(=O)Cc3ccccc3)n2)c2ccccc2Cl)noc1=O [Example 543],3.51 [a]
13,CCCCOC(=O)Nc1cccc(CO/N=C(/c2ccccc2F)c2noc(=O)n2C)n1 [Example 552],3.92 [a]
14,CCCCCCN(C(=O)OC(C)(C)C)c1cccc(CO/N=C(/c2cccc(C)c2)c2noc(=O)n2C)n1 [compound 299],6.57 [a]
15,Cn1c(/C(=N\OCc2cccc(NC(=O)OCCCC3CCCC3)n2)c2ccccc2)noc1=O [compound 408],5.31 [a]
16,COc1ccccc1COC(=O)Nc1cccc(CO/N=C(/c2ccccc2)c2noc(=O)n2C)n1 [compound 409],4.06 [a]
17,Cn1c(/C(=N\OCc2cccc(NC(=O)OCc3ccncc3)n2)c2ccccc2)noc1=O [compound 411],2.01 [a]
18,Cn1c(/C(=N\OCc2cccc(NC(=O)OCC3(C)COC3)n2)c2ccccc2)noc1=O [compound 412],2.96 [a]
19,Cn1c(/C(=N\OCc2cccc(NC(=O)OCc3ccccc3Cl)n2)c2ccccc2)noc1=O [compound 413],4.34 [a]
20,CC#CCOC(=O)Nc1cccc(CO/N=C(/c2ccccc2)c2noc(=O)n2C)n1 [compound 414],3.42 [a]
21,CCCCCC#CCOC(=O)Nc1cccc(CO/N=C(/c2ccccc2)c2noc(=O)n2C)n1 [compound 415],4.86 [a]
22,CCCCC#CCOC(=O)Nc1cccc(CO/N=C(/c2ccccc2)c2noc(=O)n2C)n1 [compound 418],4.51 [a]
23,CCCCCCCOC(=O)Nc1cccc(CO/N=C(/c2ccccc2)c2noc(=O)n2C)n1 [compound 419],5.25 [a]
24,CCOC(=O)Nc1cccc(CO/N=C(/c2ccccc2)c2noc(=O)n2C)n1 [compound 421],3.21 [a]
25,Cn1c(/C(=N\OCc2cccc(NC(=O)OCCC[Si](C)(C)C)n2)c2ccccc2)noc1=O [compound 422],5.28 [a]

row,Structure (SMILES),LogP
1,Cn1c(/C(=N\OCc2cccc(NC(=O)OCCC(C)(C)C)n2)c2ccccc2)noc1=O [compound 423],4.68 [a]
2,Cn1c(/C(=N\OCc2cccc(NC(=O)OCC(C)(CO)CCl)n2)c2ccccc2)noc1=O (stereo not drawn) [compound 424],3.19 [a]
3,Cc1ccc(OC(=O)Nc2cccc(CO/N=C(/c3ccccc3)c3noc(=O)n3C)n2)cc1 [compound 425],4.03 [a]
4,CCCc1ccccc1OC(=O)Nc1cccc(CO/N=C(/c2ccccc2)c2noc(=O)n2C)n1 [compound 426],4.54 [a]
5,CC(C)OC(=O)Nc1cccc(CO/N=C(/c2ccccc2)c2noc(=O)n2C)n1 [compound 427],3.55 [a]
6,Cn1c(/C(=N\OCc2cccc(NC(=O)OCc3c(Cl)cccc3Cl)n2)c2ccccc2)noc1=O [compound 428],4.56 [a]
7,COC(C)CCOC(=O)Nc1cccc(CO/N=C(/c2ccccc2)c2noc(=O)n2C)n1 (stereo not drawn) [compound 429],3.37 [a]
8,CCc1ccccc1OC(=O)Nc1cccc(CO/N=C(/c2ccccc2)c2noc(=O)n2C)n1 [compound 430],4.25 [a]
9,CCOCCCOC(=O)Nc1cccc(CO/N=C(/c2ccccc2)c2noc(=O)n2C)n1 [compound 431],3.44 [a]
10,Cn1c(/C(=N\OCc2cccc(NC(=O)OCc3ccc(C#N)cc3)n2)c2ccccc2)noc1=O [compound 432],3.61 [a]
11,Cn1c(/C(=N\OCc2cccc(NC(=O)OCC3CCCCO3)n2)c2ccccc2)noc1=O (stereo not drawn) [compound 433],3.5 [a]
12,Cn1c(/C(=N\OCc2cccc(NC(=O)OCc3cccnc3)n2)c2ccccc2)noc1=O [compound 434],2.17 [a]
13,CCc1cccc(OC(=O)Nc2cccc(CO/N=C(/c3ccccc3)c3noc(=O)n3C)n2)c1 [compound 435],4.34 [a]
14,C#CCCCOC(=O)Nc1cccc(CO/N=C(/c2ccccc2)c2noc(=O)n2C)n1 [compound 436],3.51 [a]
15,Cn1c(/C(=N\OCc2cccc(NC(=O)OCc3ccccn3)n2)c2ccccc2)noc1=O [compound 437],2.64 [a]
16,Cn1c(/C(=N\OCc2cccc(NC(=O)OCCC3CC3)n2)c2ccccc2)noc1=O [compound 438],4.01 [a]
17,CCOCCOCCOC(=O)Nc1cccc(CO/N=C(/c2ccccc2)c2noc(=O)n2C)n1 [compound 439],3.13 [a]
18,Cn1c(/C(=N\OCc2cccc(NC(=O)OC[Si](C)(C)C)n2)c2ccccc2)noc1=O [compound 440],4.53 [a]
19,COc1cccc(COC(=O)Nc2cccc(CO/N=C(/c3ccccc3)c3noc(=O)n3C)n2)c1 [compound 441],3.96 [a]
20,Cn1c(/C(=N\OCc2cccc(NC(=O)OCC#C[Si](C)(C)C)n2)c2ccccc2)noc1=O [compound 443],4.63 [a]
21,Cn1c(/C(=N\OCc2cccc(NC(=O)OC(C)(C)C(Cl)(Cl)Cl)n2)c2ccccc2)noc1=O [compound 445],4.91 [a]
22,CC(=O)CCCOC(=O)Nc1cccc(CO/N=C(/c2ccccc2)c2noc(=O)n2C)n1 [compound 446],2.96 [a]
23,Cn1c(/C(=N\OCc2cccc(NC(=O)OCCOCCCl)n2)c2ccccc2)noc1=O [compound 447],3.29 [a]
24,CC(C)=CCCOC(=O)Nc1cccc(CO/N=C(/c2ccccc2)c2noc(=O)n2C)n1 [compound 448],4.39 [a]
25,COc1ccc(COC(=O)Nc2cccc(CO/N=C(/c3ccccc3)c3noc(=O)n3C)n2)cc1 [compound 450],3.92 [a]

row,Structure (SMILES),LogP
1,CC(COC(=O)Nc1cccc(CO/N=C(/c2ccccc2)c2noc(=O)n2C)n1)CC(C)(C)C (stereo not drawn) [compound 451],5.39 [a]
2,C=CCC#CCCOC(=O)Nc1cccc(CO/N=C(/c2ccccc2)c2noc(=O)n2C)n1 [compound 452],4.01 [a]
3,C=CCCCCOC(=O)Nc1cccc(CO/N=C(/c2ccccc2)c2noc(=O)n2C)n1 [compound 454],4.39 [a]
4,Cn1c(/C(=N\OCc2cccc(NC(=O)OCCOc3ccccc3)n2)c2ccccc2)noc1=O [compound 456],3.94 [a]
5,COC(C)(C)CCOC(=O)Nc1cccc(CO/N=C(/c2ccccc2)c2noc(=O)n2C)n1 [compound 457],3.59 [a]
6,Cc1cccc(COC(=O)Nc2cccc(CO/N=C(/c3ccccc3)c3noc(=O)n3C)n2)c1 [compound 458],4.34 [a]
7,Cn1c(/C(=N\OCc2cccc(NC(=O)OCCBr)n2)c2ccccc2)noc1=O [compound 459],3.42 [a]
8,Cn1c(/C(=N\OCc2cccc(NC(=O)OCC(Cl)Cl)n2)c2ccccc2)noc1=O [compound 461],3.74 [a]
9,CC(C)[C@@H]1CC[C@@H](C)C[C@H]1OC(=O)Nc1cccc(CO/N=C(/c2ccccc2)c2noc(=O)n2C)n1 [compound 462],5.9 [a]
10,CCCCCCCCOC(=O)Nc1cccc(CO/N=C(/c2ccccc2)c2noc(=O)n2C)n1 [compound 465],5.65 [a]
11,C=C(C)OC(=O)Nc1cccc(CO/N=C(/c2ccccc2)c2noc(=O)n2C)n1 [compound 466],3.37 [a]
12,CCCc1ccc(OC(=O)Nc2cccc(CO/N=C(/c3ccccc3)c3noc(=O)n3C)n2)cc1 [compound 467],4.74 [a]
13,Cn1c(/C(=N\OCc2cccc(NC(=O)OCC#Cc3ccccc3)n2)c2ccccc2)noc1=O [compound 468],4.25 [a]
14,CCCc1cccc(OC(=O)Nc2cccc(CO/N=C(/c3ccccc3)c3noc(=O)n3C)n2)c1 [compound 469],4.72 [a]
15,Cc1cc(C)c(OC(=O)Nc2cccc(CO/N=C(/c3ccccc3)c3noc(=O)n3C)n2)c(C)c1 [compound 470],4.56 [a]
16,Cn1c(/C(=N\OCc2cccc(NC(=O)OCCc3ccccn3)n2)c2ccccc2)noc1=O [compound 471],2.07 [a]
17,CN(C)CCCOC(=O)Nc1cccc(CO/N=C(/c2ccccc2)c2noc(=O)n2C)n1 [compound 472],1.88 [a]
18,Cn1c(/C(=N\OCc2cccc(NC(=O)OCC3CC3)n2)c2ccccc2)noc1=O [compound 473],3.64 [a]
19,Cn1c(/C(=N\OCc2cccc(NC(=O)OCc3ccc([N+](=O)[O-])cc3)n2)c2ccccc2)noc1=O [compound 476],3.83 [a]
20,Cn1c(/C(=N\OCc2cccc(NC(=O)OCc3cccc(C#N)c3)n2)c2ccccc2)noc1=O [compound 477],3.65 [a]
21,CCc1ccc(OC(=O)Nc2cccc(CO/N=C(/c3ccccc3)c3noc(=O)n3C)n2)cc1 [compound 478],4.39 [a]
22,C=COC(=O)Nc1cccc(CO/N=C(/c2ccccc2)c2noc(=O)n2C)n1 [compound 482],3.33 [a]
23,Cn1c(C(=NOCc2cccc(NC(=O)OCC3CCCO3)n2)c2ccccc2)noc1=O (stereo not drawn) [compound 483],3.11 [a]
24,C#CCCCCOC(=O)Nc1cccc(CON=C(c2ccccc2)c2noc(=O)n2C)n1 [compound 484],3.78 [a]
25,CC(OC(=O)Nc1cccc(CON=C(c2ccccc2)c2noc(=O)n2C)n1)C1CCCCC1 (stereo not drawn) [compound 485],5.25 [a]

# Source: patent US9090600B2, “Fungicidal 4-substituted-3-{phenyl[(heterocyclylmethoxy)imino]methyl}-1,2,4-oxadizol-5(4H)-one derivatives” (BAYER INTELLECTUAL PROPERTY GMBH, priority 2011, dated 2015)
